Measurements from US20230389548A1, “MIXTURES OF PYRIMIDINES AS HERBICIDAL COMPOSITIONS” (SYNGENTA CROP PROTECTION AG, priority 2020, published 2023).

Experiments:
Assay in all cases: Post-emergence glasshouse spray test, visual percentage phytotoxicity after 13 days
Type in all cases: in vivo
[1] = test system: Abutilon threophrasti (ABUTH); conditions: B1
Protocol: (§1) Seeds of Setaria faberi (SETFA), Echinochloa crus-galli (ECHCG), Digitaria sanguinalis (DIGSA), Lolium perenne (LOLPE), Alopecurus myosuroides (ALOMY), Chenopodium album (CHEAL), Ipomoea hederacea (IPOHE), Stellaria media (STEME), Abutilon threophrasti (ABUTH), Amaranthus retroflexus (AMARE) were sown in standard sterilised soil in pots. After cultivation for 8 days under controlled conditions in a glasshouse (at 24/19° C., day/night; 16 hours light; no humidity control), the plants were sprayed at 500 l/Ha with an aqueous spray solution derived from the formulation of the technical active ingredients in a small amount of acetone and a solvent and emulsifier mixture referred to as IF50 (11.12% Emulsogen EL360™+44.44% N-methylpyrrolidone+44.44% Dowanol DPM glycol ether), to create a 50 g/l solution which was then diluted using 0.2% Genapol XO80 (CAS Number: 9043-30-5) as diluent to give the desired final dose of test compound.
(§2) Where active ingredients were applied as mixtures, aqueous spray solutions were prepared as above, containing both active ingredients.
(§3) The test plants were then grown under controlled conditions in a glasshouse (at 24/18° C., day/night; 15 hours light; 50% humidity) and watered twice daily. After 13 days, the test was evaluated visually for percentage phytotoxicity to the plants (where 100=total damage to plant; 0=no damage to plant; and NC=not captured) when compared to control untreated plants. Two to four replicates were applied for each treatment in a randomised block test design.
(§4) 22., E=X+Y−(X*Y/100), where
(§5) X=average percent phytotoxicity of herbicide A when applied at a certain rate Y=average percent phytotoxicity using herbicide B when applied at a certain rate E=the expected effect of the mixture of herbicides A and B as calculated from the Colby formula.

[2] = test system: Alopecurus myosuroides (ALOMY); conditions: B1
Protocol: as §1, §2, §3, §4, §5

[3] = test system: Amaranthus retroflexus (AMARE); conditions: B1
Protocol: as §1, §2, §3, §4, §5

[4] = test system: Chenopodium album (CHEAL); conditions: B1
Protocol: as §1, §2, §3, §4, §5

[5] = test system: Digitaria sanguinalis (DIGSA); conditions: for DIGSA percentage phytotoxicity: B1; for Observed phytotoxicity DIGSA: B2.6.2
Protocol: as §1, §2, §3, §4, §5

[6] = test system: Ipomoea hederacea (IPOHE); conditions: for IPOHE percentage phytotoxicity: B1
Protocol: as §1, §2, §3, §4, §5

Lolium perenne (LOLPE) = conditions: for LOLPE percentage phytotoxicity: B1
Protocol: as §1, §2, §3, §4, §5

Setaria faberi (SETFA) = conditions: for SETFA percentage phytotoxicity: B1; for Observed phytotoxicity SETFA: B2.6.1
Protocol: as §1, §2, §3, §4, §5

Stellaria media (STEME) = conditions: for STEME percentage phytotoxicity: B1
Protocol: as §1, §2, §3, §4, §5

**Q.** What does the source list for `Nc1c(F)c(-c2ccc3cc[nH]c3c2F)nc(C(=O)O)c1Cl` [B-VI]?
**A.** ABUTH percentage phytotoxicity ([1]; 0.625 g/ha post-emergence): 38%; ABUTH percentage phytotoxicity ([1]; 1.25 g/ha post-emergence): 55%; ABUTH percentage phytotoxicity ([1]; 2.5 g/ha post-emergence): 73%; ABUTH percentage phytotoxicity ([1]; 5 g/ha post-emergence): 78%; ABUTH percentage phytotoxicity ([1]; 10 g/ha post-emergence): 78%; ALOMY percentage phytotoxicity ([2]; 0.625 g/ha post-emergence): 0%; ALOMY percentage phytotoxicity ([2]; 1.25 g/ha post-emergence): 0%; ALOMY percentage phytotoxicity ([2]; 2.5 g/ha post-emergence): 0%; ALOMY percentage phytotoxicity ([2]; 5 g/ha post-emergence): 33%; ALOMY percentage phytotoxicity ([2]; 10 g/ha post-emergence): 30%; AMARE percentage phytotoxicity ([3]; 0.625 g/ha post-emergence): 58%; AMARE percentage phytotoxicity ([3]; 1.25 g/ha post-emergence): 65%; AMARE percentage phytotoxicity ([3]; 2.5 g/ha post-emergence): 73%; AMARE percentage phytotoxicity ([3]; 5 g/ha post-emergence): 95%; AMARE percentage phytotoxicity ([3]; 10 g/ha post-emergence): 90%; CHEAL percentage phytotoxicity ([4]; 0.625 g/ha post-emergence): 58%; CHEAL percentage phytotoxicity ([4]; 1.25 g/ha post-emergence): 73%; CHEAL percentage phytotoxicity ([4]; 2.5 g/ha post-emergence): 75%; CHEAL percentage phytotoxicity ([4]; 5 g/ha post-emergence): 94%; CHEAL percentage phytotoxicity ([4]; 10 g/ha post-emergence): 84%; DIGSA percentage phytotoxicity ([5]; 0.625 g/ha post-emergence): 0%; DIGSA percentage phytotoxicity ([5]; 1.25 g/ha post-emergence): 0%; DIGSA percentage phytotoxicity ([5]; 2.5 g/ha post-emergence): 0%; DIGSA percentage phytotoxicity ([5]; 5 g/ha post-emergence): 8%; DIGSA percentage phytotoxicity ([5]; 10 g/ha post-emergence): 43%; Observed phytotoxicity DIGSA ([5]; 0.625 g/ha post-emergence): 0%; Observed phytotoxicity DIGSA ([5]; 1.25 g/ha post-emergence): 0%; Observed phytotoxicity DIGSA ([5]; 5 g/ha post-emergence): 8%; IPOHE percentage phytotoxicity ([6]; 0.625 g/ha post-emergence): 13%; IPOHE percentage phytotoxicity ([6]; 1.25 g/ha post-emergence): 35%; IPOHE percentage phytotoxicity ([6]; 2.5 g/ha post-emergence): 38%; IPOHE percentage phytotoxicity ([6]; 5 g/ha post-emergence): 48%; IPOHE percentage phytotoxicity ([6]; 10 g/ha post-emergence): 50%; Observed phytotoxicity IPOHE ([6]; B2.6.4, 2.5 g/ha post-emergence): 38%; LOLPE percentage phytotoxicity (Lolium perenne (LOLPE); 0.625 g/ha post-emergence): 0%; LOLPE percentage phytotoxicity (Lolium perenne (LOLPE); 1.25 g/ha post-emergence): 0%; LOLPE percentage phytotoxicity (Lolium perenne (LOLPE); 2.5 g/ha post-emergence): 0%; LOLPE percentage phytotoxicity (Lolium perenne (LOLPE); 5 g/ha post-emergence): 8%; LOLPE percentage phytotoxicity (Lolium perenne (LOLPE); 10 g/ha post-emergence): 8%; Observed phytotoxicity LOLPE (Lolium perenne (LOLPE); B2.6.3, 5 g/ha post-emergence): 8%; SETFA percentage phytotoxicity (Setaria faberi (SETFA); 0.625 g/ha post-emergence): 0%; SETFA percentage phytotoxicity (Setaria faberi (SETFA); 1.25 g/ha post-emergence): 0%; SETFA percentage phytotoxicity (Setaria faberi (SETFA); 2.5 g/ha post-emergence): 0%; SETFA percentage phytotoxicity (Setaria faberi (SETFA); 5 g/ha post-emergence): 48%; SETFA percentage phytotoxicity (Setaria faberi (SETFA); 10 g/ha post-emergence): 70%; Observed phytotoxicity SETFA (Setaria faberi (SETFA); 0.625 g/ha post-emergence): 0%; Observed phytotoxicity SETFA (Setaria faberi (SETFA); 1.25 g/ha post-emergence): 0%; STEME percentage phytotoxicity (Stellaria media (STEME); 0.625 g/ha post-emergence): 78%; STEME percentage phytotoxicity (Stellaria media (STEME); 1.25 g/ha post-emergence): 50%; STEME percentage phytotoxicity (Stellaria media (STEME); 2.5 g/ha post-emergence): 65%; STEME percentage phytotoxicity (Stellaria media (STEME); 5 g/ha post-emergence): 98%; STEME percentage phytotoxicity (Stellaria media (STEME); 10 g/ha post-emergence): 90%; Observed phytotoxicity STEME (Stellaria media (STEME); B2.6.5, 1.25 g/ha post-emergence): 50%
